pKi: −log10 of the molar value.
Experiments:
Carbonic anhydrase 1 = Carbonic anhydrase 1 (Homo sapiens, UniProt P00915); assay: Inhibition of human carbonic anhydrase 1 preincubated for 6 hrs at 4 degC measured for 10 to 100 secs by stopped-flow carbon dioxide hydration assay
Carbonic anhydrase 2 = Carbonic anhydrase 2 (Homo sapiens, UniProt P00918); assay: Inhibition of human carbonic anhydrase 2 preincubated for 6 hrs at 4 degC measured for 10 to 100 secs by stopped-flow carbon dioxide hydration assay
Carbonic anhydrase 12 = Carbonic anhydrase 12 (Homo sapiens, UniProt O43570); assay: Inhibition of human carbonic anhydrase 12 preincubated for 6 hrs at 4 degC measured for 10 to 100 secs by stopped-flow carbon dioxide hydration assay
Chain of Carbonic anhydrase 12 (O43570 whole entry, the tested form may be a part): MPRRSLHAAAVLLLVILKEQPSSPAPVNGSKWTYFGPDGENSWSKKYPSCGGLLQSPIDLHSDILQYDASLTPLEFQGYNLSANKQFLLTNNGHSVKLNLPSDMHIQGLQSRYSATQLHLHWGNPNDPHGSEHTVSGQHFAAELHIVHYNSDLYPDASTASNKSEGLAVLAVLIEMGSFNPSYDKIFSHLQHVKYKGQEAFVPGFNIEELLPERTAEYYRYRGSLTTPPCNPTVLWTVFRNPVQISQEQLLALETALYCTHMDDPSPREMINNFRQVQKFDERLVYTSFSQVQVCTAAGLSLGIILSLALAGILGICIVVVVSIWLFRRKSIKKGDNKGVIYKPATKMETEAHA

Carbonic anhydrase 9 = Carbonic anhydrase 9 (Homo sapiens, UniProt Q16790); assay: Inhibition of human carbonic anhydrase 9 catalytic domain preincubated for 6 hrs at 4 degC measured for 10 to 100 secs by stopped-flow carbon dioxide hydration assay

Chain of Carbonic anhydrase 1 (P00915 whole entry): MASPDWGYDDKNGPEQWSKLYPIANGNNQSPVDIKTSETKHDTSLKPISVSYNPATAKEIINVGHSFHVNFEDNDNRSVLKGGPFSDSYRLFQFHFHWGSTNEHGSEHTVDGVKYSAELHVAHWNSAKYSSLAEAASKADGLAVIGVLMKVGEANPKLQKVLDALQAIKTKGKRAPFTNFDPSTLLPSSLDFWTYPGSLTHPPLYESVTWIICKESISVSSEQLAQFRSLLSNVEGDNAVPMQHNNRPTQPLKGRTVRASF

Row | pKi (Carbonic anhydrase 1) | pKi (Carbonic anhydrase 2) | pKi (Carbonic anhydrase 12) | pKi (Carbonic anhydrase 9) | SMILES
1 | 7.08 | 8.30 | 8.04 |  | CC(Sc1nc(-c2ccc(Cl)cc2)c(C#N)c(=O)[nH]1)C(=O)Nc1ccc(S(N)(=O)=O)cc1 (stereo not given)
2 | 7.47 | 8.21 | 8.04 | 7.43 | CC(Sc1nc(-c2ccc(Cl)c(F)c2)c(C#N)c(=O)[nH]1)C(=O)Nc1ccc(S(N)(=O)=O)cc1 (stereo not given)
3 | 7.49 | 8.19 | 7.62 | 7.62 | CCC(Sc1nc(-c2cccc(OC)c2)c(C#N)c(=O)[nH]1)C(=O)Nc1ccc(S(N)(=O)=O)cc1 (stereo not given)

Row | SMILES | pKi (Carbonic anhydrase 1) | pKi (Carbonic anhydrase 2) | pKi (Carbonic anhydrase 12) | pKi (Carbonic anhydrase 9)
4 | CC(Sc1nc(-c2ccc(Cl)c(Cl)c2)c(C#N)c(=O)[nH]1)C(=O)Nc1ccc(S(N)(=O)=O)cc1 (stereo not given) | 7.32 | 8.29 | 8.11 | 7.72

Reference: ChEMBL document CHEMBL3813660, “Kinetic and X-ray crystallographic investigations of substituted 2-thio-6-oxo-1,6-dihydropyrimidine-benzenesulfonamides acting as carbonic anhydrase inhibitors” (Bioorg Med Chem, 2016)
